Earlier results as cited in patent publication US20130296280A1, “EUTECTIC MIXTURE COMPRISING CELECOXIB AND POLOXAMER” (priority 2012, published 2013).

Conditions: oral celecoxib; Drug Metab Dispos. 2000:28:308-314

bioavailability: 22-40%
SMILES: Cc1ccc(-c2cc(C(F)(F)F)nn2-c2ccc(S(N)(=O)=O)cc2)cc1 [celecoxib, 4-[5-(4-methylphenyl)-3-(trifluoromethyl)-1H-pyrazol-1-yl]benzenesulfonamide]
